# According to patent US7157092B1, “Acyl pseudodipeptides, preparation method and pharmaceutical compositions containing same” (Om Pharma, priority 1998, dated 2007):
# Read-outs that look alike come from different tables or passages of the source.
# What was measured:
# [1] = tested on: mouse bone marrow stem cells; experiment: Bone marrow stem cell proliferation (XTT); assay type: cell-based, C57/BL6 mice; conditions: 7 days incubation, FIG. 1
# Method: Two six-week old male C57/BL6 mice were killed by CO2 inhalation followed by cervical dislocation. The mice were washed with alcohol, and the skin of the posterior members was entirely removed. The hip, femur and tibia bones were removed by joint disruption. The flesh was grossly removed using a scalpel. The bones were cleaned and the bone ends were cut with scissors. The marrrow was extracted from the bone lumen by injecting three times 1 ml of Dulbecco's Modified Eagle Medium (DH medium) from the extremities which were cut with scissors. The cells were suspended in DH medium and centrifuged at 300×g for 5 minutes. The supernatant fluid was discarded and the stem cells were suspended in DH medium supplemented with 20% foetal calf serum (FCS) The cell concentration was adjusted to 500 000 cells/ml. […]
# Proliferation is determined by measuring the oxydation of a chromogenic substrate (XTT) in mitochondria of viable cells.
# 7 days later, the microtiter plates are centrifuged for 5 minutes at 400×g, and 100 μl of the supernatant fluid are withdrawn and discarded. […] After 8 hour incubation at 37° C. under 8% CO2 in an incubator at 100% RH, the microtiter plates are read with a spectrophotometer at 480 nm against a standard at 690 nm.
# The results are expressed as mean values (+standard deviation) by plotting a dose versus response curve. […]
# gp63 antigen [2] = assay type: in vivo, CBA mice; conditions: 2 s.c. injections gp63 2 μg with 2×50 μg OM-294-MP or 200 μg BCG
# gp63 antigen [3] = assay type: in vivo, CBA mice
# LmCPb antigen [4] = experiment: Primary response to single injection of Leishmania mexicana LmCPb antigen: lymph node cell proliferation (3H-TdR take-up); assay type: in vivo, CBA mice; conditions: single injection LmCPb 2 μg + 50 μg adjuvant
# Method: (§1) CBA mice were administered through the tail a single injection of LmCPb in a 2 μg dose either in combination or not with 50 μg of OM-294-MP adjuvant. A control group was administered one injection of physiological saline buffer (non immunized subjects). Eleven days later, cells of the inguinal and periaortic lymph nodes (groups of 3 mice each) were cultured and the proliferative response directed to the purified LmCPb antigen, to a preparation of whole amastigotes of Leishmania mexicana and to concanvalin A (ConA) was evaluated by measuring tritiated thymidine take-up (^3H-TdR). γ IFN and IL-4 cytokine production by lymph node lymphocytes rechallenged in vitro with LmCPb antigen of Leishmania mexicana or by amastigotes was equally determined by ELISA (MIF00 γ IFN & M4000 IL-4 kits, R&D Systems Europe Ltd, Abingdon, UK) using a sample of each culture supernatant of lymph node lymphocytes before addition of ^3H-TdR.
# (§2) Values reported in the tables stand for the mean value±standard deviation (triplicate) expressed in cpm for ^3H-TdR take-up and the arithmetic mean±standard deviation (triplicate) expressed in pg per ml for cytokine production in supernatant fluids.
# (§3) Antigen: LmCPb stock solution is prepared at a concentration of 40 μg/ml in PBS (2×).
# (§4) The negative control consists of a PBS solution without antigen.
# (§5) Antigen-adjuvant mixture: Adjuvants are maintained for 10 minutes at 37° C. before vortexing for 3 minutes. Then, the antigen (1 volume) and the adjuvant (1 volume) are mixed and vortexed briefly before being incubated for 20 minutes at 37° C., and finally the whole mixture is vortexed again for 3 minutes.
# LmCPb antigen [5] = experiment: Primary response to single injection of LmCPb antigen: in vitro cytokine secretion by lymph node lymphocytes (ELISA); assay type: in vivo, CBA mice; conditions: single injection LmCPb + adjuvant
# Method: as §1, §2, §3, §4, §5
# [6] = tested on: predendritic cells (DC-6); experiment: Dendritic cell maturation: FITC-Dextran conjugate incorporation; conditions: 0.02% g to 25 μg per ml; FIGS. 4, 5
# [7] = tested on: predendritic cells (DC-6); conditions: DC-9 stage
# [8] = Weight change in rats of the peritoneal carcinoma study; assay type: in vivo, BDIX rats
# UreB 1-569 = experiment: Nasal immunization with urease B subunit of Heliobacter pylori: serum anti-UreB immunoglobulins (ELISA); assay type: in vivo, BALB/c mice; conditions: 4 times weekly, 25 μg OM-294-DP alone
# [9] = tested on: PROb syngenic tumoral line; experiment: Treatment of peritoneal carcinoma induced by PROb cells in BDIX rats
# [10] = 10 i.v. injections of 1 mg/kg from day 13
# [11] = 10 i.v. injections of 1 mg/kg from day 13, dissection at D42
smiles,measurement,setting,value
"CCCCCCCCCCCC(=O)O[C@H](CCCCCCCCCCC)CC(=O)NC(CCOP(=O)(O)O)C(=O)NCCCC(CO)NC(=O)C[C@H](O)CCCCCCCCCCC (stereo partly drawn) [OM-294-MP, 3-[(R)-3-dodecanoyloxytetradecanoylamino]-4-oxo-5-aza-9-[(R)-3-hydroxytetradecanoylamino]-decane-1,10-diol 1-dihydrogenphosphate]",cell proliferation of mouse bone marrow stem cells,[1],more moderate response than the diphosphorylated product
same,"murine T lymphocyte proliferation, 3H-TdR take-up",gp63 antigen [2]; gp63 in vitro 0 μg/ml,2.8 ± 0.7 cpm × 10^−3/ml
same,"murine T lymphocyte proliferation, 3H-TdR take-up",gp63 antigen [2]; gp63 in vitro 0.16 μg/ml,65 ± 11 cpm × 10^−3/ml
same,"murine T lymphocyte proliferation, 3H-TdR take-up",gp63 antigen [2]; gp63 in vitro 0.31 μg/ml,92 ± 11 cpm × 10^−3/ml
same,"murine T lymphocyte proliferation, 3H-TdR take-up",gp63 antigen [2]; gp63 in vitro 0.62 μg/ml,93 ± 13 cpm × 10^−3/ml
same,"murine T lymphocyte proliferation, 3H-TdR take-up",gp63 antigen [2]; gp63 in vitro 1.25 μg/ml,39 ± 7 cpm × 10^−3/ml
same,IL-4 concentration,gp63 antigen [3]; gp63 in vitro 0,<8 pg/mL
same,γ IFN concentration,gp63 antigen [3]; gp63 in vitro 0,<9 pg/mL
same,IL-4 concentration,gp63 antigen [3]; gp63 in vitro 0.3,125 pg/mL
same,γ IFN concentration,gp63 antigen [3]; gp63 in vitro 0.3,135 pg/mL
same,IL-4 concentration,gp63 antigen [3]; gp63 in vitro 0.6,83 pg/mL
same,γ IFN concentration,gp63 antigen [3]; gp63 in vitro 0.6,120 pg/mL
same,3H-TdR take-up,LmCPb antigen [4]; in vitro: Amastigotes 1.9 × 10^−6/ml,44 ± 7 cpm × 10^−3/ml
same,3H-TdR take-up,LmCPb antigen [4]; in vitro: Amastigotes 6 × 10^−6/ml,79 ± 6 cpm × 10^−3/ml
same,3H-TdR take-up,LmCPb antigen [4]; in vitro: Amastigotes 17 × 10^−6/ml,119 ± 4 cpm × 10^−3/ml
same,3H-TdR take-up,LmCPb antigen [4]; in vitro: Con A 5 μg/ml,196 ± 10 cpm × 10^−3/ml
same,3H-TdR take-up,LmCPb antigen [4]; in vitro: LmCPb 0.6 μg/ml,19 ± 4 cpm × 10^−3/ml
same,3H-TdR take-up,LmCPb antigen [4]; in vitro: LmCPb 1.7 μg/ml,40 ± 4 cpm × 10^−3/ml
same,3H-TdR take-up,LmCPb antigen [4]; in vitro: LmCPb 5 μg/ml,80 ± 5 cpm × 10^−3/ml
same,3H-TdR take-up,LmCPb antigen [4]; in vitro: LmCPb 15 μg/ml,140 ± 10 cpm × 10^−3/ml
same,3H-TdR take-up,LmCPb antigen [4]; in vitro: No stimulant,11 ± 2 cpm × 10^−3/ml
same,γ IFN production,LmCPb antigen [5]; in vitro: Amastigotes,320 pg/mL
same,IL-4 production,LmCPb antigen [5]; in vitro: Amastigotes 17 × 10^−5/ml,65 pg/mL
same,IL-4 production,LmCPb antigen [5]; in vitro: Con A 5 μg/ml,360 pg/mL
same,γ IFN production,LmCPb antigen [5]; in vitro: Con A 5 μg/ml,>1800 pg/mL
same,IL-4 production,LmCPb antigen [5]; in vitro: LmCPb 15 μg/ml,130 pg/mL
same,γ IFN production,LmCPb antigen [5]; in vitro: LmCPb 15 μg/ml,480 pg/mL
same,IL-4 production,LmCPb antigen [5]; in vitro: No challenge,<8 pg/mL
same,γ IFN production,LmCPb antigen [5]; in vitro: No stimulant,25 pg/mL
same,differenciation of DC-6 into DC-9 cells (dose vs. response of FITC-Dextran incorporation),[6],outstanding capacity to induce differenciation of DC-6 into DC-9 cells
same,"CD40 expression, % of mean fluorescence based on LPS-induced expression",[7]; FIG. 6,39%
same,"CD86 expression, % of mean fluorescence based on LPS-induced expression",[7]; FIG. 7,77%
same,"CD83 expression, % of mean fluorescence based on LPS-induced expression",[7]; FIG. 8,60%
same,"CD80 expression, % of mean fluorescence based on LPS-induced expression",[7]; FIG. 9,62%
"CCCCCCCCCCCC(=O)O[C@H](CCCCCCCCCCC)CC(=O)NC(CCOP(=O)(O)O)C(=O)NCCCC(COP(=O)(O)O)NC(=O)C[C@H](O)CCCCCCCCCCC (stereo partly drawn) [OM-294-DP, 3-[(R)-3-dodecanoyloxytetradecanoylamino]-4-oxo-5-aza-9-[(R)-3-hydroxytetradecanoylamino]decan-1,10-diol 1, 10-bis(dihydrogenphosphate)]",Weight of rats (mean ± standard deviation),[8]; Day 0,277 ± 19
same,Weight of rats (mean ± standard deviation),[8]; Day 13,310 ± 21
same,Weight of rats (mean ± standard deviation),[8]; Day 20,304 ± 23
same,Weight of rats (mean ± standard deviation),[8]; Day 29,317 ± 24
same,Weight of rats (mean ± standard deviation),[8]; Day 41,327 ± 26
same,effect on weight change in comparison to NaCl alone,"[8]; rat, in vivo",no significant effect on weight change
same,anti-UreB antibodies in serum,UreB 1-569,No anti-UreB antibodies are detected
same,"Volume ascite, mean ± σ",[9]; [10],8 ± 23 ml/rat
same,"Volume ascite, range",[9]; [10],0–73 ml/rat
same,animals surviving at day 42 following injection of tumor cells,[9]; [10],90%
same,Number of rats suffering from carcinoma belonging to class 0 (no nodules visible),[9]; [11],4
same,Number of rats suffering from carcinoma belonging to class 1,[9]; [11],1
same,Number of rats suffering from carcinoma belonging to class 2,[9]; [11],2
same,Number of rats suffering from carcinoma belonging to class 3,[9]; [11],1
same,Number of rats suffering from carcinoma belonging to class 4,[9]; [11],2
same,anti-tumor activity in the peritoneal carcinoma model,"[9]; rat, in vivo",remarkable anti-tumor activity
same,"Effect of product on ascite volume, p (Variance analysis)",[9]; versus NaCl,p < 0.05
same,"Effect of product on carcinoma classification, p (Kruskall-Wallis test)",[9]; versus NaCl,p < 0.05
same,"extension of rat survival rate, p (log rank test)",[9]; versus control,< 0.001
